In ChEMBL document CHEMBL1201862, “PubChem BioAssay data set” (2004):
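Dose response: 5 concentrations. Exposure: 48 h. Format: 96-well plates. Endpoint: linear interpolation; highest concentration if not reached. GI50 is the concentration that inhibits growth by half.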 Calls of active or inactive are those of the source. Cut-off read from the data, not from the text of the source: active = GI50 up to about 1.1 µM and inactive = higher.

Legend:
Assay in all cases: NCI-60 cell line screen, 48 h
SR = test system: SR
OVCAR-3 = test system: OVCAR-3
LOX IMVI = test system: LOX IMVI
UO-31 = test system: UO-31
NCI-H23 = test system: NCI-H23
UACC-257 = test system: UACC-257
ACHN = test system: ACHN
HOP-62 = test system: HOP-62
NCI-H522 = test system: NCI-H522
M14 = test system: M14
KM12 = test system: KM12
SF-295 = test system: SF-295
SK-MEL-2 = test system: SK-MEL-2
HCT-15 = test system: HCT-15
K562 = test system: K562
RXF 393 = test system: RXF 393
MDA-N = test system: MDA-N
MDA-MB-435 = test system: MDA-MB-435
SW-620 = test system: SW-620
SK-OV-3 = test system: SK-OV-3
T47D = test system: T47D
DU-145 = test system: DU-145
HCT-116 = test system: HCT-116
OVCAR-5 = test system: OVCAR-5
SF-539 = test system: SF-539
MOLT-4 = test system: MOLT-4
TK-10 = test system: TK-10
SF-268 = test system: SF-268
U-251 = test system: U-251
MCF7 = test system: MCF7
MDA-MB-231 = test system: MDA-MB-231
NCI/ADR-RES = test system: NCI/ADR-RES
HT-29 = test system: HT-29
EKVX = test system: EKVX
SN12C = test system: SN12C
SNB-19 = test system: SNB-19
SK-MEL-28 = test system: SK-MEL-28
IGROV-1 = test system: IGROV-1
CAKI-1 = test system: CAKI-1
OVCAR-8 = test system: OVCAR-8
CCRF-CEM = test system: CCRF-CEM
HCC 2998 = test system: HCC 2998
SNB-75 = test system: SNB-75
Hs-578T = test system: Hs-578T
PC-3 = test system: PC-3
BT-549 = test system: BT-549
786-0 = test system: 786-0
COLO 205 = test system: COLO 205
UACC-62 = test system: UACC-62
RPMI-8226 = test system: RPMI-8226
HL-60 = test system: HL-60
Malme-3M = test system: Malme-3M
OVCAR-4 = test system: OVCAR-4
HOP-92 = test system: HOP-92
NCI-H460 = test system: NCI-H460
A549 = test system: A549
SK-MEL-5 = test system: SK-MEL-5
A498 = test system: A498
NCI-H226 = test system: NCI-H226

Measured: GI50

Fc1cccc(F)c1C1SCc2nc3cc(Cl)c(Cl)cc3n21 (configuration not stated)
> 100 µM: HCT-15
inactive: SR > 100 µM | OVCAR-3 > 100 µM | LOX IMVI > 100 µM | UO-31 > 100 µM | NCI-H23 > 100 µM | UACC-257 > 100 µM | ACHN > 100 µM | HOP-62 > 100 µM | NCI-H522 > 100 µM | M14 > 100 µM | KM12 > 100 µM | SF-295 > 100 µM | SK-MEL-2 > 100 µM | K562 > 100 µM | RXF 393 > 100 µM | MDA-N > 100 µM | MDA-MB-435 > 100 µM | SW-620 > 100 µM | SK-OV-3 > 100 µM | T47D > 100 µM | DU-145 > 100 µM | HCT-116 > 100 µM | OVCAR-5 > 100 µM | SF-539 > 100 µM | MOLT-4 > 100 µM | TK-10 > 100 µM | SF-268 > 100 µM | U-251 > 100 µM | MCF7 > 100 µM | MDA-MB-231 > 100 µM | NCI/ADR-RES > 100 µM | HT-29 > 100 µM | EKVX > 100 µM | SN12C > 100 µM | SNB-19 > 100 µM | SK-MEL-28 > 100 µM | IGROV-1 > 100 µM | CAKI-1 > 100 µM | OVCAR-8 > 100 µM | CCRF-CEM > 100 µM | HCC 2998 > 100 µM | SNB-75 95.7 µM | Hs-578T > 100 µM | PC-3 > 100 µM | BT-549 > 100 µM | 786-0 > 73.5 µM | COLO 205 > 100 µM | UACC-62 > 100 µM | RPMI-8226 > 100 µM | HL-60 > 100 µM | Malme-3M > 100 µM | OVCAR-4 > 100 µM | HOP-92 42.4 µM | NCI-H460 > 100 µM | A549 > 100 µM | SK-MEL-5 > 100 µM

COc1cc(/C=C2\CCC/C(=C\c3cc(OC)c(O)c(OC)c3)C2=O)cc(OC)c1O
1.52 µM: HCT-15
inactive: SR 3.8 µM | LOX IMVI 1.91 µM | A498 1.41 µM | UO-31 1.69 µM | NCI-H23 1.35 µM | UACC-257 3.42 µM | ACHN 1.22 µM | HOP-62 1.8 µM | NCI-H522 1.53 µM | M14 1.88 µM | KM12 1.38 µM | SF-295 2.03 µM | SK-MEL-2 2.4 µM | K562 4.81 µM | RXF 393 1.43 µM | MDA-N 1.79 µM | MDA-MB-435 1.84 µM | SW-620 3.37 µM | SK-OV-3 1.81 µM | T47D 2.79 µM | DU-145 2.39 µM | HCT-116 1.32 µM | OVCAR-5 2.05 µM | SF-539 2.16 µM | MOLT-4 4.38 µM | TK-10 5.33 µM | SF-268 2.61 µM | U-251 1.36 µM | MCF7 3.12 µM | MDA-MB-231 2.71 µM | NCI/ADR-RES 2.19 µM | HT-29 12.9 µM | EKVX 4.5 µM | SN12C 2.32 µM | SNB-19 1.81 µM | SK-MEL-28 2.69 µM | IGROV-1 1.22 µM | CAKI-1 1.84 µM | OVCAR-8 1.98 µM | HCC 2998 1.35 µM | SNB-75 9.86 µM | Hs-578T 3.75 µM | PC-3 3.35 µM | BT-549 1.53 µM | 786-0 1.7 µM | COLO 205 9.38 µM | UACC-62 1.38 µM | NCI-H226 10.4 µM | RPMI-8226 1.55 µM | HL-60 1.72 µM | Malme-3M 1.51 µM | OVCAR-4 3.16 µM | NCI-H460 2.22 µM | A549 1.67 µM | SK-MEL-5 2.28 µM
active: OVCAR-3 1.07 µM | CCRF-CEM 0.43 µM

CC12c3c4cc(Br)cc3Oc3cc(Br)cc(c31)Oc1cc(Br)cc(c12)O4
41.4 µM: HCT-15
inactive: SR 15.1 µM | OVCAR-3 12.4 µM | LOX IMVI 24.9 µM | UO-31 52 µM | NCI-H23 57.1 µM | UACC-257 36.9 µM | ACHN 51.9 µM | HOP-62 60.4 µM | M14 35.4 µM | KM12 58.5 µM | SF-295 > 100 µM | SK-MEL-2 23.1 µM | K562 44.4 µM | MDA-N 41.1 µM | MDA-MB-435 26.2 µM | SW-620 24.6 µM | SK-OV-3 > 100 µM | T47D 28.1 µM | DU-145 16.4 µM | HCT-116 17.7 µM | OVCAR-5 55.5 µM | SF-539 34.6 µM | MOLT-4 23.1 µM | TK-10 41.1 µM | SF-268 10.5 µM | U-251 62.1 µM | MCF7 43.4 µM | MDA-MB-231 17.8 µM | NCI/ADR-RES 19.8 µM | HT-29 76.9 µM | EKVX 19.7 µM | SN12C 31 µM | SNB-19 > 100 µM | SK-MEL-28 30.5 µM | IGROV-1 22.8 µM | OVCAR-8 55 µM | HCC 2998 81.5 µM | SNB-75 15.5 µM | Hs-578T > 100 µM | PC-3 21 µM | BT-549 21.9 µM | 786-0 19.8 µM | COLO 205 25.6 µM | UACC-62 27.7 µM | NCI-H226 11.2 µM | RPMI-8226 19.4 µM | Malme-3M 19.9 µM | OVCAR-4 > 100 µM | NCI-H460 63.1 µM | A549 44.8 µM | SK-MEL-5 27.6 µM
